From ChEMBL document CHEMBL4145694 (J Med Chem, 2018) come the findings set out here.

SMILES strings stand for the structures. Calls of active or inactive are those of the source. The calls are words filed in the database; no cut-off is given here.

The target of assay [1] is Delta-type opioid receptor (Homo sapiens) (UniProt P41143). The experiment in a line: Agonist activity at human delta-opioid receptor expressed in CHO cell membranes assessed as stimulation of [35S]GTPgammaS binding at 10 uM incubated for 60 mins by scintillation counting method. The assay is classed as functional.
Delta-type opioid receptor (Homo sapiens), sequence (P41143 whole entry): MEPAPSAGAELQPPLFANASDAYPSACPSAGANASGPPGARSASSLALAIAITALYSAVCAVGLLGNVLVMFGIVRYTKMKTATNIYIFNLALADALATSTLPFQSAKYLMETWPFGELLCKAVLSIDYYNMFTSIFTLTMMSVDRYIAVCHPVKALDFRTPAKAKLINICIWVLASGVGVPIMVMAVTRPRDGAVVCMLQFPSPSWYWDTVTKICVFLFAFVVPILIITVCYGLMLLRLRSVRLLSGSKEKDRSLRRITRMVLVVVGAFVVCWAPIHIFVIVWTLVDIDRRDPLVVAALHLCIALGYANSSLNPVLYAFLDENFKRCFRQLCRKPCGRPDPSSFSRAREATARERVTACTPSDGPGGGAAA
Assay [2] concerns the target Kappa-type opioid receptor (Homo sapiens) (UniProt P41145). The experiment in a line: Agonist activity at human kappa-opioid receptor expressed in CHO cell membranes assessed as stimulation of [35S]GTPgammaS binding at 10 uM incubated for 60 mins by scintillation counting method. Type of assay: functional. On the technique in general: GTPγS resists hydrolysis and so accumulates on activated G proteins.

The target in assay [3] is Mu-type opioid receptor (Homo sapiens) (UniProt P35372). The experiment in a line: Agonist activity at human mu-opioid receptor expressed in CHO cell membranes assessed as stimulation of [35S]GTPgammaS binding at 10 uM incubated for 60 mins by scintillation counting method. The assay is classed as functional.
Mu-type opioid receptor (Homo sapiens), sequence (P35372 whole entry): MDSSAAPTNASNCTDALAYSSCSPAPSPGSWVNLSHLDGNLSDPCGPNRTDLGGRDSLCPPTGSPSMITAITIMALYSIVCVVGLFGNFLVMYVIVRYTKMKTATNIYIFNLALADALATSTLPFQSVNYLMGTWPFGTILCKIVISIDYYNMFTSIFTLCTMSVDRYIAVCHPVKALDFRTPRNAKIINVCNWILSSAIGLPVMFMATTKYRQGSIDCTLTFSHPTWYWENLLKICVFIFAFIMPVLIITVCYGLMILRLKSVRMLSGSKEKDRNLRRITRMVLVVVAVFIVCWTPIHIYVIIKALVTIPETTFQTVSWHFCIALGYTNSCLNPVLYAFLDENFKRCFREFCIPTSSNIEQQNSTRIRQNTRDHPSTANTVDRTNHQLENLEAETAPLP
The target is the same in assay [4]. The experiment in a line: Antagonist activity at human mu-opioid receptor expressed in CHO cell membranes assessed as inhibition of DAMGO-induced [35S]GTPgammaS binding incubated for 60 mins by scintillation counting method. The assay is classed as functional.
The species entered for assay [5] is Homo sapiens. Briefly: Selectivity index, ratio of Ke for antagonist activity at human mu-opioid receptor expressed in CHO cell membranes to Ke for antagonist activity at human kappa-opioid receptor expressed in CHO cell membranes. The assay is classed as cell-based.
Assay [6] has as its target Kappa-type opioid receptor (Homo sapiens) (UniProt P41145). The experiment in a line: Antagonist activity at human kappa-opioid receptor expressed in CHO cell membranes assessed as inhibition of U69593-induced [35S]GTPgammaS binding incubated for 60 mins by scintillation counting method. The assay is classed as functional.
The species entered for assay [7] is Homo sapiens. The experiment in a line: Selectivity index, ratio of Ke for antagonist activity at human delta-opioid receptor expressed in CHO cell membranes to Ke for antagonist activity at human kappa-opioid receptor expressed in CHO cell membranes. Type of assay: cell-based.
Assay [8] concerns the target Delta-type opioid receptor (Homo sapiens) (UniProt P41143). Briefly: Antagonist activity at human delta-opioid receptor expressed in CHO cell membranes assessed as inhibition of DPDPE-induced [35S]GTPgammaS binding incubated for 60 mins by scintillation counting method. The assay is classed as functional.

Kappa-type opioid receptor (Homo sapiens), sequence (P41145 whole entry): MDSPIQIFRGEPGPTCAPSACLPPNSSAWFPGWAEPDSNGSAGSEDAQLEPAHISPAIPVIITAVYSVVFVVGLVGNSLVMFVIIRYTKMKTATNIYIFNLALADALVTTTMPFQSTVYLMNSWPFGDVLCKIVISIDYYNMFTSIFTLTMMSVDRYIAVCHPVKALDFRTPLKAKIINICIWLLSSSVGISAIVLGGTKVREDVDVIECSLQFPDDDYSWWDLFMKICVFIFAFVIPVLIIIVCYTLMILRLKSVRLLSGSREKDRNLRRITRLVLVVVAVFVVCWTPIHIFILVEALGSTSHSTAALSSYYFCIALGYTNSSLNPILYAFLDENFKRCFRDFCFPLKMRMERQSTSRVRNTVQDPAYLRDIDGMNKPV

Take `CC1=C(C)CN(C[C@@H](NC(=O)[C@H]2Cc3ccc(O)cc3CN2)C(C)C)CC1`: the outcome in assay [1], in assay [2] and in assay [3] was inactive.
Regarding `CC1CCN(C[C@@H](NC(=O)[C@H]2Cc3ccc(O)cc3CN2)C2CC2)CC1`, the result in assay [1], in assay [2] and in assay [3] was inactive.
For the compound `CC(C)[C@@H](CN1CCC(C(N)=O)CC1)NC(=O)[C@H]1Cc2ccc(O)cc2CN1`, the outcome in assay [1], in assay [2] and in assay [3] was inactive. In addition, the figures for the Ke in assay [4] and in assay [6] were 129 nM and 3.22 nM, respectively. The Ratio Ke in the assay listed under Homo sapiens [5] came out at 40.
As to `CC(C)[C@@H](CN1CCC(C(F)(F)F)CC1)NC(=O)[C@H]1Cc2ccc(O)cc2CN1`, the outcome in assay [1], in assay [2] and in assay [3] was inactive. In addition, the Ke in assay [4] amounted to 67.9 nM; in assay [6], 4.69 nM. In the assay listed under Homo sapiens [5], the Ratio Ke was found to be 14.
Consider `CC1CCCN(C[C@@H](NC(=O)[C@H]2Cc3ccc(O)cc3CN2)C(C)C)C1` (mixture of isomers), for which the outcome in assay [1], in assay [2] and in assay [3] was inactive.
`CC(C)[C@@H](CN1CCCC1)NC(=O)[C@H]1Cc2ccc(O)cc2CN1`: the outcome in assay [1], in assay [2] and in assay [3] was inactive.
In the case of `CC(C)[C@@H](CN1CC[C@H](C)[C@@H](C)C1)NC(=O)[C@H]1Cc2ccc(O)cc2CN1` (mixture of isomers), the result in assay [1], in assay [2] and in assay [3] was inactive.
In the case of `CC1CC(C)CN(C[C@@H](NC(=O)[C@H]2Cc3ccc(O)cc3CN2)C(C)C)C1` (some centres undefined), the outcome in assay [1], in assay [2] and in assay [3] was inactive.
For `CCCN(CCC)C[C@@H](NC(=O)[C@H]1Cc2ccc(O)cc2CN1)C(C)C`, the outcome in assay [1], in assay [2] and in assay [3] was inactive.
Consider `CC(C)[C@@H](CN1CCC(C(F)F)CC1)NC(=O)[C@H]1Cc2ccc(O)cc2CN1`, for which the result in assay [1], in assay [2] and in assay [3] was inactive. The Ke was 70.9 nM in assay [4] and 3.45 nM in assay [6].
For the compound `CC(C)[C@@H](CN1CCCCC1)NC(=O)[C@H]1Cc2ccc(O)cc2CN1`, the outcome in assay [1], in assay [2] and in assay [3] was inactive.
For `CC(C)[C@@H](CN1CC[C@@](C)(c2cccc(O)c2)[C@@H](C)C1)NC(=O)[C@H]1Cc2ccc(O)cc2CN1C`, the Ratio Ke amounted to 3070 in the assay listed under Homo sapiens [7] and 1310 in the assay filed under Homo sapiens [5].
Take `O=C(NCCN1CCCCC1)[C@H]1Cc2ccc(O)cc2CN1`: the outcome in assay [1], in assay [2] and in assay [3] was inactive.
In the case of `CC(C)[C@@H](CN1CCC(C#N)CC1)NC(=O)[C@H]1Cc2ccc(O)cc2CN1`, the result in assay [1], in assay [2] and in assay [3] was inactive. The figures for the Ke in assay [4] and in assay [6] were 647 nM and 12.7 nM, respectively. In addition, the Ratio Ke in the assay listed under Homo sapiens [5] was 51.
As for `CC(C)[C@@H](CN1CCN(C)CC1)NC(=O)[C@H]1Cc2ccc(O)cc2CN1`, the result in assay [1], in assay [2] and in assay [3] was inactive. The Ke in assay [4] amounted to 915 nM; in assay [6] it was 98.8 nM. Besides, in the assay listed under Homo sapiens [5], the Ratio Ke is 9.
In the case of `CC1CCN(C[C@@H](NC(=O)[C@@H]2Cc3ccc(O)cc3CN2)C(C)C)CC1`, the result in assay [1], in assay [2] and in assay [3] was inactive. In assay [8], the Ke was more than 3000 nM.
For `CC1CCN(C[C@@H](NC(=O)[C@H](N)Cc2ccc(O)cc2)C(C)C)CC1`, the result in assay [1], in assay [2] and in assay [3] was inactive.
`CC1CCN(C[C@@H](NC(=O)c2ccc3cc(O)ccc3c2)C(C)C)CC1`: the result in assay [1], in assay [2] and in assay [3] was inactive.
In the case of `CC1CCN(C[C@@H](NC(=O)[C@@H]2CCc3cc(O)ccc3C2)C(C)C)CC1`, the outcome in assay [1], in assay [2] and in assay [3] was inactive.
As for `CC1CCN(C[C@H](NC(=O)[C@H]2Cc3ccc(O)cc3CN2)C(C)C)CC1`, the result in assay [1], in assay [2] and in assay [3] was inactive. For the same compound, the Ke in assay [8] was more than 3000 nM.
Regarding `CC(C)[C@@H](CN1CCC(F)(F)CC1)NC(=O)[C@H]1Cc2ccc(O)cc2CN1`, the result in assay [1], in assay [2] and in assay [3] was inactive. The Ke in assay [4] came out at 604 nM; in assay [6], 11.8 nM. In addition, the Ratio Ke in the assay filed under Homo sapiens [5] came out at 51.
`COC1CCN(C[C@@H](NC(=O)[C@H]2Cc3ccc(O)cc3CN2)C(C)C)CC1`: the outcome in assay [1], in assay [2] and in assay [3] was inactive. In addition, the Ke came out at 198 nM in assay [4] and 6.53 nM in assay [6]. For the same compound, in the assay filed under Homo sapiens [5], the Ratio Ke worked out at 30.
Turning to `CCN(CC)C[C@@H](NC(=O)[C@H]1Cc2ccc(O)cc2CN1)C(C)C`, the result in assay [1], in assay [2] and in assay [3] was inactive. For the same compound, the Ratio Ke in the assay listed under Homo sapiens [5] turned out to be 16.5.
As to `CC(C)CN(CC(C)C)C[C@@H](NC(=O)[C@H]1Cc2ccc(O)cc2CN1)C(C)C`, the outcome in assay [1], in assay [2] and in assay [3] was inactive. Besides, the Ke in assay [6] is 137 nM.
In the case of `CC(C)[C@@H](CN1CCOCC1)NC(=O)[C@H]1Cc2ccc(O)cc2CN1`, the outcome in assay [1], in assay [2] and in assay [3] was inactive. In assay [6], the Ke came out at 396 nM.
Consider `CC1=CCN(C[C@@H](NC(=O)[C@H]2Cc3ccc(O)cc3CN2)C(C)C)CC1`, for which the outcome in assay [1], in assay [2] and in assay [3] was inactive.
For the compound `CC(C)[C@@H](CN1CCCCCC1)NC(=O)[C@H]1Cc2ccc(O)cc2CN1`, the result in assay [1], in assay [2] and in assay [3] was inactive.
In the case of `CC(C)[C@@H](CN1CCC(N(C)C)CC1)NC(=O)[C@H]1Cc2ccc(O)cc2CN1`, the outcome in assay [1], in assay [2] and in assay [3] was inactive. Besides, the Ke in assay [4] came to 318 nM; in assay [6] it was 8.08 nM. The Ratio Ke in the assay filed under Homo sapiens [5] amounted to 39.
With `CC(C)[C@@H](CN1CC=CCC1)NC(=O)[C@H]1Cc2ccc(O)cc2CN1`, the outcome in assay [1], in assay [2] and in assay [3] was inactive.
Consider `CC1=CCCN(C[C@@H](NC(=O)[C@H]2Cc3ccc(O)cc3CN2)C(C)C)C1`, for which the result in assay [1], in assay [2] and in assay [3] was inactive.
On to `CC1CCN(C[C@H](NC(=O)[C@@H]2Cc3ccc(O)cc3CN2)C(C)C)CC1`, for which the outcome in assay [1], in assay [2] and in assay [3] was inactive. Moreover, the Ke in assay [8] is more than 3000 nM.
In the case of `CC(C)[C@@H](CN1CC[C@@H](C)[C@@H](C)C1)NC(=O)[C@H]1Cc2ccc(O)cc2CN1` (mixture of isomers), the result in assay [1], in assay [2] and in assay [3] was inactive.
With `CC(C)[C@@H](CN1C2CCC1CC2)NC(=O)[C@H]1Cc2ccc(O)cc2CN1`, the result in assay [1], in assay [2] and in assay [3] was inactive.
For the compound `CC1CCN(C[C@@H](NC[C@H]2Cc3ccc(O)cc3CN2)C(C)C)CC1`, the outcome in assay [1], in assay [2] and in assay [3] was inactive.
For `CC(C)[C@@H](CN1CCCCC1C)NC(=O)[C@H]1Cc2ccc(O)cc2CN1` (mixture of isomers), the result in assay [1], in assay [2] and in assay [3] was inactive. For the same compound, the figures for the Ke in assay [4] and in assay [6] were 44.9 nM and 15.1 nM, respectively. Besides, the Ratio Ke in the assay filed under Homo sapiens [5] amounted to 3.
For the compound `CC(C)[C@@H](CN1CCCCC1=O)NC(=O)[C@H]1Cc2ccc(O)cc2CN1`, the outcome in assay [1], in assay [2] and in assay [3] was inactive.
